Here are results for 20 molecules from patent US20260001914A1, “MACROCYCLIC PEPTIDES TARGETING KRAS” (Merck Sharp & Dohme LLC, priority 2022, published 2026).

*1 amine or outer side, *2 acyl side, *3 side chain or, on linkers, in order; H or OH if unused. Where a SMILES comes first, the peptide text is derived from it. Bridges are numbered along the chain shown (N, C = ends). [ ]: non-standard residue; d: D form. cBu(1-CO,cis-3-CH2NH) = O=C([C@H]1C[C@@H](CN[*:1])C1)[*:2]; NMeNva(5-imidazol-1-yl) = CN[C@@H](CCCn1ccnc1)C(=O)O; Phe(4-guanidino) = N=C(N)Nc1ccc(C[C@H](N)C(=O)O)cc1; Ala(pyrimidin-5-yl) = N[C@@H](Cc1cncnc1)C(=O)O; Phe(4-CH2NH2) = NCc1ccc(C[C@H](N)C(=O)O)cc1; Lys(N3) = [N-]=[N+]=NCCCC[C@H](N)C(=O)O; X40 = CC(C)(F)C[C@H](N[*:1])C(=O)[*:2]; 1Nal = N[C@@H](Cc1cccc2ccccc12)C(=O)O; Ala(4-THP) = N[C@@H](CC1CCOCC1)C(=O)O; Ala(cPent) = N[C@@H](CC1CCCC1)C(=O)O; Phe(2-F) = N[C@@H](Cc1ccccc1F)C(=O)O; NMe3Pal = CN[C@@H](Cc1cccnc1)C(=O)O; X1 = O=C(C12CC(CN[*:1])(C1)C2)[*:2]; NMeF = CN[C@@H](Cc1ccccc1)C(=O)O; PhLac = O=C(O)[C@@H](O)Cc1ccccc1; X4 = O=C([C@H](CCCF)N[*:1])[*:2]; 3Pal = N[C@@H](Cc1cccnc1)C(=O)O; 4Pal = N[C@@H](Cc1ccncc1)C(=O)O; d(αMeC) = C[C@@](N)(CS)C(=O)O; Ahp(2) = CCCCC[C@H](N)C(=O)O; Cba = N[C@@H](CC1CCC1)C(=O)O; hLeu = CC(C)CC[C@H](N)C(=O)O; αMeC = C[C@](N)(CS)C(=O)O; NMeA = CN[C@@H](C)C(=O)O; Nle = CCCC[C@H](N)C(=O)O; Nva = CCC[C@H](N)C(=O)O

The target of the test is KRAS-G12D protein (Homo sapiens, UniProt P01116, G12D). Description: SOS-mediated nucleotide exchange assay (BODIPY-GDP / Tb-streptavidin TR-FRET). It is filed as biochemical.
Chain of KRAS-G12D protein (P01116 1-188 isoform P01116-2 G12D): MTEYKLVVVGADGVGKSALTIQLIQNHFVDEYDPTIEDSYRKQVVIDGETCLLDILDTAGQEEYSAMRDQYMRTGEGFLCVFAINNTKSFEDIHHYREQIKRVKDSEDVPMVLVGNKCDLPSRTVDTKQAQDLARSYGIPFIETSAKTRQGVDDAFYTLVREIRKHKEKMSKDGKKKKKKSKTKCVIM
On to `CC(C)CC[C@@H]1NC(=O)[C@H](Cc2ccccc2F)NC(=O)[C@H](CCCF)NC(=O)[C@H](Cc2cncnc2)NC(=O)[C@H](C)N(C)C(=O)[C@H](Cc2ccccc2)OC(=O)C23CC(CNC(=O)[C@H](Cc4ccccc4)N(C)C1=O)(C2)C3` [compound 133, cyclo(FLac-NMeA-PyrimAla-NvaF-Phe2F-hL-NMeF-amBCP)] (cyclo([NMeA][Ala(pyrimidin-5-yl)][X4][Phe(2-F)][hLeu][NMeF][X1][PhLac])), for which the concentration giving a half-maximal response (EC50) is 7.79 nM. The figure for `CC(C)CC[C@@H]1NC(=O)[C@H](Cc2ccccc2F)NC(=O)[C@H](CC2CCC2)NC(=O)[C@H](Cc2cncnc2)NC(=O)[C@H](C)N(C)C(=O)[C@H](Cc2ccccc2)OC(=O)C23CC(CNC(=O)[C@H](Cc4ccccc4)N(C)C1=O)(C2)C3` [compound 134, cyclo(FLac-NMeA-PyrimAla-cBuA-Phe2F-hL-NMeF-amBCP)] (cyclo([Cba][Phe(2-F)][hLeu][NMeF][X1][PhLac][NMeA][Ala(pyrimidin-5-yl)])) is 6.47 nM; for `CC(C)CC[C@@H]1NC(=O)[C@H](Cc2ccccc2F)NC(=O)[C@H](CC2CCCC2)NC(=O)[C@H](Cc2cncnc2)NC(=O)[C@H](C)N(C)C(=O)[C@H](Cc2ccccc2)OC(=O)C23CC(CNC(=O)[C@H](Cc4ccccc4)N(C)C1=O)(C2)C3` [compound 135, cyclo(FLac-NMcA-PyrimAla-cPeA-Phe2F-hL-NMeF-amBCP)] (cyclo([Ala(cPent)][Phe(2-F)][hLeu][NMeF][X1][PhLac][NMeA][Ala(pyrimidin-5-yl)])) it is 4.13 nM. The molecule `CC(C)CC[C@@H]1NC(=O)[C@H](Cc2ccccc2F)NC(=O)[C@H](CC(C)(C)F)NC(=O)[C@H](Cc2cncnc2)NC(=O)[C@H](C)N(C)C(=O)[C@H](Cc2ccccc2)OC(=O)C23CC(CNC(=O)[C@H](Cc4ccccc4)N(C)C1=O)(C2)C3` [compound 136, cyclo(FLac-NMeA-PyrimAla-Leu3F-Phe2F-hL-NMeF-amBCP)] (cyclo([NMeA][Ala(pyrimidin-5-yl)][X40][Phe(2-F)][hLeu][NMeF][X1][PhLac])) had an EC50 of 114 nM. Then `CCCC[C@@H]1NC(=O)[C@H](Cc2ccc(O)cc2)NC(=O)[C@H](CC2CCCCC2)NC(=O)[C@H](CCCCN)NC(=O)[C@H](CCCNC(=N)N)NC(=O)[C@H](Cc2cccc3ccccc23)NC(=O)CSC[C@H](C(N)=O)NC(=O)[C@H](Cc2ccccc2)N(C)C1=O` [compound 139, cyclo(INal-R-K-Cha-Y-Nle-NMeF-dCl-ClAc)], with 5990 nM; and `CCCC[C@@H]1NC(=O)[C@H](Cc2ccncc2)NC(=O)[C@H](CCCNC(=N)N)NC(=O)[C@H](Cc2cccc3ccccc23)NC(=O)CSC[C@H](C(=O)O)NC(=O)[C@H](Cc2ccccc2)N(C)C(=O)[C@H](CCC)NC(=O)[C@H](Cc2ccc(O)cc2)NC1=O` [compound 140, cyclo(INal-R-4Pal-Nle-Y-Nva-NMeF-dC-ClAc)] ({CH2CO}-[1Nal]R[4Pal][Nle]Y[Nva][NMeF][dC]-OH; thioether N-8), with 1170 nM; and `CCCC[C@@H]1NC(=O)[C@H](Cc2ccc(NC(=N)N)cc2)NC(=O)[C@H](CCCNC(=N)N)NC(=O)[C@H](Cc2cccc3ccccc23)NC(=O)CSC[C@H](C(=O)O)NC(=O)[C@H](Cc2ccccc2)N(C)C(=O)[C@H](CCCC)NC(=O)[C@H](Cc2ccc(O)cc2)NC1=O` [compound 141, cyclo(INal-R-Phe4Gn-Nle-Y-Nle-NMeF-dC-ClAc)] ({CH2CO}-[1Nal]R[Phe(4-guanidino)][Nle]Y[Nle][NMeF][dC]-OH; thioether N-8), with 16.8 nM. In the case of `CCCC[C@@H]1NC(=O)[C@H](Cc2ccc(NC(=N)N)cc2)NC(=O)[C@H](CCCNC(=N)N)NC(=O)[C@H](Cc2cccc3ccccc23)NC(=O)CSC[C@](C)(C(=O)O)NC(=O)[C@H](Cc2ccccc2)N(C)C(=O)[C@H](CCCC)NC(=O)[C@H](Cc2ccc(O)cc2)NC1=O` [compound 143, cyclo(INal-R-Phe4Gn-Nlc-Y-Nle-NMeF-daMeC-ClAc)] ({CH2CO}-[1Nal]R[Phe(4-guanidino)][Nle]Y[Nle][NMeF][d(αMeC)]-OH; thioether N-8), the response was half-maximal at 575 nM (EC50). Then `CCCC[C@@H]1NC(=O)[C@H](Cc2ccc(CN)cc2)NC(=O)[C@H](CCCNC(=N)N)NC(=O)[C@H](Cc2cccc3ccccc23)NC(=O)CSC[C@](C)(C(=O)O)NC(=O)[C@H](Cc2ccccc2)N(C)C(=O)[C@H](CCCC)NC(=O)[C@H](Cc2ccc(O)cc2)NC1=O` [compound 144, cyclo(1Nal-R-Phe4CH2NH2-Nle-Y-Nle-NMeF-daMeC-ClAc)] ({CH2CO}-[1Nal]R[Phe(4-CH2NH2)][Nle]Y[Nle][NMeF][d(αMeC)]-OH; thioether N-8), with 1460 nM; and `CCCC[C@@H]1NC(=O)[C@H](Cc2ccc(CNC(C)=O)cc2)NC(=O)[C@H](CCCNC(=N)N)NC(=O)[C@H](Cc2cccc3ccccc23)NC(=O)CSC[C@](C)(C(=O)O)NC(=O)[C@H](Cc2ccccc2)N(C)C(=O)[C@H](CCCC)NC(=O)[C@H](Cc2ccc(O)cc2)NC1=O` [compound 145, cyclo(INal-R-Phe4CH2NHAc-Nle-Y-Nle-NMeF-daMeC-ClAc)] ({CH2CO}-[1Nal]R[Phe(4-CH2NH2)](Ac)[Nle]Y[Nle][NMeF][d(αMeC)]-OH; thioether N-8), with 7030 nM. Molecule `CCCC[C@@H]1NC(=O)[C@H](Cc2ccc(O)cc2)NC(=O)[C@H](CC2CCOCC2)NC(=O)[C@H](Cc2ccc(NC(=N)N)cc2)NC(=O)[C@H](CCCNC(=N)N)NC(=O)[C@H](Cc2cccc3ccccc23)NC(=O)CSC[C@H](C(=O)O)NC(=O)[C@H](Cc2ccccc2)N(C)C1=O` [compound 147, cyclo(INal-R-Phe4Gn-AlaTHP4-Y-Nle-NMeF-dC-ClAc)] ({CH2CO}-[1Nal]R[Phe(4-guanidino)][Ala(4-THP)]Y[Nle][NMeF][dC]-OH; thioether N-8) gave an EC50 of 512 nM. This EC50 lies about 14-fold lower than the previous one. The figure for `CCCC[C@@H]1NC(=O)[C@H](Cc2cccnc2)NC(=O)[C@H](CCCNC(=N)N)NC(=O)[C@H](Cc2ccccc2)NC(=O)CSC[C@@](C)(C(=O)O)NC(=O)[C@H](Cc2cccnc2)N(C)C(=O)[C@H](CCCC)NC(=O)[C@H](Cc2ccccc2F)NC1=O` [compound 148, cyclo(F-R-3Pal-Nle-Phe2F-Nle-NMe3Pal-aMeC-ClAc)] ({CH2CO}-FR[3Pal][Nle][Phe(2-F)][Nle][NMe3Pal][αMeC]-OH; thioether N-8) is 370 nM; for `CCCC[C@@H]1NC(=O)[C@H](CCCCN)NC(=O)[C@H](CCCNC(=N)N)NC(=O)[C@H](C(c2ccccc2)c2ccccc2)NC(=O)CSC[C@H](C(N)=O)NC(=O)[C@H](Cc2ccccc2)N(C)C(=O)[C@H](CCCC)NC(=O)[C@H](Cc2ccc(O)cc2)NC1=O` [compound 149, cyclo(Dip-R-K-Nle-Y-Nle-NMeF-dCl-ClAc)] it is 1030 nM; for `CCCC[C@@H]1NC(=O)[C@H](Cc2cccnc2)NC(=O)[C@H](CCCn2ccnc2)N(C)C(=O)[C@H](Cc2ccccc2)N(C)C(=O)[C@H]2C[C@@H](CNC(=O)[C@H](Cc3cccnc3)N(C)C(=O)[C@H](CCCCN=[N+]=[N-])NC(=O)[C@H](Cc3ccccc3F)NC1=O)C2` [compound 157, cyclo(NMeF-NMeNvalmid-3Pal-Nle-Phe2F-LysN3-NMe3Pal-c3amCblc)] (cyclo([3Pal][Nle][Phe(2-F)][Lys(N3)][NMe3Pal][cBu(1-CO,cis-3-CH2NH)][NMeF][NMeNva(5-imidazol-1-yl)])) it is 7760 nM.

In turn, `CCCCC[C@@H]1NC(=O)[C@H](Cc2ccc(OC)cc2)NC(=O)[C@H](CC2CCC2)NC(=O)[C@H](Cc2cccnc2)NC(=O)[C@H](C)N(C)C(=O)[C@H](Cc2ccccc2)NC(=O)CSC[C@@](C)(C(N)=O)NC(=O)[C@H](Cc2ccccc2)N(C)C1=O` [compound 158, cyclo(F-NMeA-3Pal-cBuA-TyrOMe-Ahp-NMeF-aMeCl-ClAc)] ({CH2CO}-F[NMeA][3Pal][Cba]Y(Me)[Ahp(2)][NMeF][αMeC]-NH2; thioether N-8) returned a concentration for a half-maximal effect (EC50) of 146 nM. The figure for `CCCC[C@@H]1NC(=O)[C@H](Cc2cccnc2)NC(=O)[C@H](C)N(C)C(=O)[C@H](Cc2ccccc2)NC(=O)CSC[C@@](C)(C(N)=O)NC(=O)[C@H](Cc2ccccc2)N(C)C(=O)[C@H](CCCC)NC(=O)[C@H](Cc2ccccc2F)NC1=O` [compound 159, cyclo(F-NMeA-3Pal-Nle-Phe2F-Nle-NMeF-aMeCl-ClAc)] ({CH2CO}-F[NMeA][3Pal][Nle][Phe(2-F)][Nle][NMeF][αMeC]-NH2; thioether N-8) is 110 nM; for `CCCC[C@@H]1NC(=O)[C@H](Cc2cccnc2)NC(=O)[C@H](CCCNC(=N)N)NC(=O)[C@H](Cc2ccccc2)NC(=O)CSC[C@@](C)(C(N)=O)NC(=O)[C@H](Cc2ccccc2)N(C)C(=O)[C@H](CCCC)NC(=O)[C@H](Cc2ccccc2F)NC1=O` [compound 160, cyclo(F-R-3Pal-Nle-Phe2F-Nle-NMeF-aMeCl-ClAc)] ({CH2CO}-FR[3Pal][Nle][Phe(2-F)][Nle][NMeF][αMeC]-NH2; thioether N-8) it is 12.8 nM; for `CCC[C@@H]1NC(=O)[C@H](Cc2ccc(O)cc2)NC(=O)[C@H](CC(C)C)NC(=O)[C@H](Cc2ccc(O)cc2)NC(=O)[C@H](CCCNC(=N)N)NC(=O)[C@H](Cc2ccccc2)NC(=O)CCCNC(=O)[C@H](Cc2ccccc2)N(C)C1=O` [compound 161, cyclo(F-R-Y-L-Y-Nva-NMeF-C4NH2acid)] it is 2840 nM.

With `CCCC[C@@H]1NC(=O)[C@H](Cc2cccnc2)NC(=O)[C@H](C)N(C)C(=O)[C@H](Cc2ccccc2)NC(=O)C23CC(CNC(=O)[C@H](Cc4cccnc4)N(C)C(=O)[C@H](CCCC)NC(=O)[C@H](Cc4ccccc4F)NC1=O)(C2)C3` [compound 162, cyclo(F-NMeA-3Pal-Nle-Phe2F-Nle-NMe3Pal-amBCP)] (cyclo(F[NMeA][3Pal][Nle][Phe(2-F)][Nle][NMe3Pal][X1])), the EC50 came to 313 nM.

Take `CCCC[C@@H]1NC(=O)[C@H](Cc2cccnc2)NC(=O)[C@H](C)N(C)C(=O)[C@H](Cc2cccnc2)NC(=O)C23CC(CNC(=O)[C@H](Cc4cccnc4)N(C)C(=O)[C@H](CCCC)NC(=O)[C@H](Cc4ccccc4F)NC1=O)(C2)C3` [compound 163, cyclo(3Pal-NMeA-3Pal-Nle-Phe2F-Nle-NMe3Pal-amBCP)] (cyclo([3Pal][NMeA][3Pal][Nle][Phe(2-F)][Nle][NMe3Pal][X1])): a half-maximal effect (EC50) was put at 3060 nM.
